Assay results reported in ChEMBL document CHEMBL3991601, “The target landscape of clinical kinase drugs” (Science, 2017).
Active and inactive are the calls of the source. Rule as the data show it, for most assays here: actives have a measured Kd and inactives only a lower limit.

Legend:
[1] = target: T1, Phosphatidylinositol 5-phosphate 4-kinase type-2 alpha (Homo sapiens, UniProt P48426)
T1 sequence (P48426 whole entry): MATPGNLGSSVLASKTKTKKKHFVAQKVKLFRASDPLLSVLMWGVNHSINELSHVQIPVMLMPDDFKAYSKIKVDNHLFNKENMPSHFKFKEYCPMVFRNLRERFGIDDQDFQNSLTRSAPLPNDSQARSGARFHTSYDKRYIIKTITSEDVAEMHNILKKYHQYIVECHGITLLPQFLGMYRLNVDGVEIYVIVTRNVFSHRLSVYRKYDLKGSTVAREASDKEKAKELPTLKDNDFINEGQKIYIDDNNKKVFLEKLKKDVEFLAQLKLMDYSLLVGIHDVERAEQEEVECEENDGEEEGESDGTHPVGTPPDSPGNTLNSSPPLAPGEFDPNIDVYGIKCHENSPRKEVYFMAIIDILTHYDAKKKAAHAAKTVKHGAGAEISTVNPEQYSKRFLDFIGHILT

[2] = target: BMP-2-inducible protein kinase (Homo sapiens, UniProt Q9NSY1)
[3] = target: T2, Thyroid hormone receptor-associated protein 3 (Homo sapiens, UniProt Q9Y2W1)
T2 sequence (Q9Y2W1 whole entry): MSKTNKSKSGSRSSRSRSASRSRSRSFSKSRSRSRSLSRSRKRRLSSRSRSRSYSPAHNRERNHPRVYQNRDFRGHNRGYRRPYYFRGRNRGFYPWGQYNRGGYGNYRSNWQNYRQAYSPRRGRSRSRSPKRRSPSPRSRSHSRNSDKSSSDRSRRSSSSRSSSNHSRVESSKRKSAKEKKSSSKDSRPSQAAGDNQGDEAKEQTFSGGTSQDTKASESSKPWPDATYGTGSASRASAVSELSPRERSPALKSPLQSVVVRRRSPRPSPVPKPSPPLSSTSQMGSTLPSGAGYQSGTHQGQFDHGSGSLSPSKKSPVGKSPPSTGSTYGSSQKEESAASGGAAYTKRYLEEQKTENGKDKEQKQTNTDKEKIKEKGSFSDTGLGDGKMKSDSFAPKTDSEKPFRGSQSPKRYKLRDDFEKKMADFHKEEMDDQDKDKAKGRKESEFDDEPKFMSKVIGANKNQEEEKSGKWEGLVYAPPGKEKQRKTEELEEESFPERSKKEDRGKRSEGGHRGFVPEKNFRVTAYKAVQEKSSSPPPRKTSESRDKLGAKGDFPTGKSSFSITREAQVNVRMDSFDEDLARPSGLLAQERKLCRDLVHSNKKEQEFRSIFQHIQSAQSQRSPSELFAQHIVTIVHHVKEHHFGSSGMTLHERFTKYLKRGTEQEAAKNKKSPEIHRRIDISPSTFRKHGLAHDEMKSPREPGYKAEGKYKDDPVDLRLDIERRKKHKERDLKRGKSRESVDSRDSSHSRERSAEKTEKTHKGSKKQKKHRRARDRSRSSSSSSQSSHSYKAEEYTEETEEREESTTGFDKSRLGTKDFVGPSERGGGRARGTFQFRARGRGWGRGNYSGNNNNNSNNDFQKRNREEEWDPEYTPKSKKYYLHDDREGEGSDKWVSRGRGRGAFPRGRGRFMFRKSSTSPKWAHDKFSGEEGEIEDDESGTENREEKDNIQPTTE

[4] = target: Ribosomal protein S6 kinase alpha-1 (Homo sapiens, UniProt Q15418)
[5] = target: Mitogen-activated protein kinase kinase kinase 1 (Homo sapiens, UniProt Q13233)
[6] = target: Phosphatidylethanolamine-binding protein 1 (Homo sapiens, UniProt P30086)
[7] = target: T3, Exosome RNA helicase MTR4 (Homo sapiens, UniProt P42285)
T3 sequence (P42285 whole entry): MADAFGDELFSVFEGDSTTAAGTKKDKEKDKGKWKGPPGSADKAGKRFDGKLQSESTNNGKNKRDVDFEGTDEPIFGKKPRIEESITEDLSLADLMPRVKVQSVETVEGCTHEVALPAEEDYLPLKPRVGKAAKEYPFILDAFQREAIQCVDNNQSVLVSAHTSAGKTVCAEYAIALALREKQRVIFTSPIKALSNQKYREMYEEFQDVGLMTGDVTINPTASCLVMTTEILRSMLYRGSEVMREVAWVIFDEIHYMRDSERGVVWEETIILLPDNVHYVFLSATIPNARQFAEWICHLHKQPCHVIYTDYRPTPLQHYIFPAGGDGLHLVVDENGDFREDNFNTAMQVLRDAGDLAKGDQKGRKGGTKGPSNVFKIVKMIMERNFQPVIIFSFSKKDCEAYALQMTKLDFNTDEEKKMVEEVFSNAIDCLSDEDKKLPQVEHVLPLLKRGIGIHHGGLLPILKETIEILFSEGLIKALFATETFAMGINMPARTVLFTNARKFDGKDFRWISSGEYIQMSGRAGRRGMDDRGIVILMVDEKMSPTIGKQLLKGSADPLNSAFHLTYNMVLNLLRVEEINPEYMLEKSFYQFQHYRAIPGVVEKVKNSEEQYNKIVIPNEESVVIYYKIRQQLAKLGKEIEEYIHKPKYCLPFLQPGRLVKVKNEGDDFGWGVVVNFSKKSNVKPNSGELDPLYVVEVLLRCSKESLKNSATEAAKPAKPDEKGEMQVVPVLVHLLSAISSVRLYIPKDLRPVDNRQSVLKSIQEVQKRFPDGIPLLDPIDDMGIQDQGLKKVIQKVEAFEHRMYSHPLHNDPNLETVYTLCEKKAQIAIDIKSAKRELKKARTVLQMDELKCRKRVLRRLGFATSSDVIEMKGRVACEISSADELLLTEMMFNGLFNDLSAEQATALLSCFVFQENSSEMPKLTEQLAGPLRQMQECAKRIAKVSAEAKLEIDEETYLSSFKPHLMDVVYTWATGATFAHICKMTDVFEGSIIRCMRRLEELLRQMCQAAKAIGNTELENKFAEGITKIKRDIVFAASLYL

[8] = target: Cyclin-dependent kinase 17 (Homo sapiens, UniProt Q00537)
[9] = target: S-adenosylmethionine synthase isoform type-2 (Homo sapiens, UniProt P31153)
[10] = target: Serine/threonine-protein kinase pim-1 (Homo sapiens, UniProt P11309)
[11] = target: Dual specificity tyrosine-phosphorylation-regulated kinase 1A (Homo sapiens, UniProt Q13627)
[12] = target: STE20-like serine/threonine-protein kinase (Homo sapiens, UniProt Q9H2G2)
[13] = target: Rho-associated protein kinase 2 (Homo sapiens, UniProt O75116)
Also: in the data inactive means no Kd found up to 30 µM.

Phosphatidylethanolamine-binding protein 1, sequence (P30086 whole entry): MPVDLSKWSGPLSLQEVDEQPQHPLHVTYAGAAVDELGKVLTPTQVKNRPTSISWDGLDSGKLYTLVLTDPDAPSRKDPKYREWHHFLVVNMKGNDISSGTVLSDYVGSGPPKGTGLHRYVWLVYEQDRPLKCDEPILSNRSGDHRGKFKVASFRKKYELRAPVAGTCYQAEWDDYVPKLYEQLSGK
BMP-2-inducible protein kinase, sequence (Q9NSY1 whole entry): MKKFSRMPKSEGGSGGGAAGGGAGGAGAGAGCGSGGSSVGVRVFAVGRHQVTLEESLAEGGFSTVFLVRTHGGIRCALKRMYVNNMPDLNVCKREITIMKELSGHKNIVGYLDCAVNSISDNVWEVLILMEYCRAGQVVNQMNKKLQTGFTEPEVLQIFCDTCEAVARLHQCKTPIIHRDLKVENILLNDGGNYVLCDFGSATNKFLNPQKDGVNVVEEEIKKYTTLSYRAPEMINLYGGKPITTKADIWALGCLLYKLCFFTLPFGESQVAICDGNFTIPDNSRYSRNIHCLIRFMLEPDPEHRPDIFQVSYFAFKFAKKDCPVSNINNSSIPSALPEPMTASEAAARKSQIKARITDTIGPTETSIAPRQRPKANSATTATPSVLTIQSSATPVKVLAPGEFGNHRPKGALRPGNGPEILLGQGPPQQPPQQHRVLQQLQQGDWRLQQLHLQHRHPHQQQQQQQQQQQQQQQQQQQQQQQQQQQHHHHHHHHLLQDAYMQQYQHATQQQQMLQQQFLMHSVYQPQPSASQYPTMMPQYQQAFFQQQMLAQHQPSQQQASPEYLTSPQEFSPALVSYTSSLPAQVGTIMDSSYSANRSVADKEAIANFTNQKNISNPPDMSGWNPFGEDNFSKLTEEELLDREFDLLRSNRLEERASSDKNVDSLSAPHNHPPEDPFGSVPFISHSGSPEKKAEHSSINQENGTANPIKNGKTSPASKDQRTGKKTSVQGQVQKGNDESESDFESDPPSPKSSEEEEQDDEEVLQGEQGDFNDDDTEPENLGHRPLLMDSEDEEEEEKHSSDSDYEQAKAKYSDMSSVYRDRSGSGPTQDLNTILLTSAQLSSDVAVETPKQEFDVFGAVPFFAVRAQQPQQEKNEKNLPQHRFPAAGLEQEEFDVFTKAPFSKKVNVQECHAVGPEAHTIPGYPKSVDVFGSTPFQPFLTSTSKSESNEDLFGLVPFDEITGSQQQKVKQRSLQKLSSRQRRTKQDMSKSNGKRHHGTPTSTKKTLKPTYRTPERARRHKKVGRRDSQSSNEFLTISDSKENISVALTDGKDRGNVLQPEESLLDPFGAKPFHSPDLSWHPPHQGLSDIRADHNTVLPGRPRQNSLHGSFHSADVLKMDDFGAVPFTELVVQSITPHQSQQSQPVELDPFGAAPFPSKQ
Rho-associated protein kinase 2, sequence (O75116 whole entry): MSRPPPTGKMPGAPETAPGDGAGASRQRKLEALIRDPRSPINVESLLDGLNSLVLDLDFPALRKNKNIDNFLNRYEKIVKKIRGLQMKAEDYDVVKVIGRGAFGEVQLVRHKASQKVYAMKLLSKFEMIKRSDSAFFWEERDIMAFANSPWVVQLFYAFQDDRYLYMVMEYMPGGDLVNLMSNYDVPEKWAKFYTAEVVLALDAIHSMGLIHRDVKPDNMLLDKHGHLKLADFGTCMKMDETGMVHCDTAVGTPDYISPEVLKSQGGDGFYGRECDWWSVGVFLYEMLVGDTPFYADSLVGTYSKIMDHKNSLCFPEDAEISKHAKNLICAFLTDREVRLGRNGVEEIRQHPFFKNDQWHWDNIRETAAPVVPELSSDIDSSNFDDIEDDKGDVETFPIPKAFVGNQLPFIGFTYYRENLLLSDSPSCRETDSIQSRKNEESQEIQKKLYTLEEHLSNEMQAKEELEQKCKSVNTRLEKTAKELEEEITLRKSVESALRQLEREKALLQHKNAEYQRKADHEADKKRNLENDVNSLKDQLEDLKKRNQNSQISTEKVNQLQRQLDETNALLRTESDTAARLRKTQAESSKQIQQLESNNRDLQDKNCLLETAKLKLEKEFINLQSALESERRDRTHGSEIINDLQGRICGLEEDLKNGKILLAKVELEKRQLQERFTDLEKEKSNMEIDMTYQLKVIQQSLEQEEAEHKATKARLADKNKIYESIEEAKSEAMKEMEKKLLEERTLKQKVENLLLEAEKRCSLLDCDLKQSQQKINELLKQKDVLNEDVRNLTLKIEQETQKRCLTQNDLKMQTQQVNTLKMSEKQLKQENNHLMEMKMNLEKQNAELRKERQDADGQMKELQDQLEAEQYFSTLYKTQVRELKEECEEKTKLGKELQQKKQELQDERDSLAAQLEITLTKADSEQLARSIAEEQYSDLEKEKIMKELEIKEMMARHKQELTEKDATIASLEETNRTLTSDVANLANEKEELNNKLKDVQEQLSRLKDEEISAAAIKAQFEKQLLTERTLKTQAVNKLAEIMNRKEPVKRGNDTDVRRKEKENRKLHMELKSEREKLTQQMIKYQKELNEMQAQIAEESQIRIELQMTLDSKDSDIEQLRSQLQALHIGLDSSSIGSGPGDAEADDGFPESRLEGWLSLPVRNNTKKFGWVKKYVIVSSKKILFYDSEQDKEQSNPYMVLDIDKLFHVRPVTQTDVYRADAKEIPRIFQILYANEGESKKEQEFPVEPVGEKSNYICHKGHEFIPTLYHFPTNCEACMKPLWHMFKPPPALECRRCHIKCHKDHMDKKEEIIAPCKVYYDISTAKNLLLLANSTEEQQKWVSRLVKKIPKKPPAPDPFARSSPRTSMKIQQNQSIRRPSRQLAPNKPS
Mitogen-activated protein kinase kinase kinase 1, sequence (Q13233 whole entry): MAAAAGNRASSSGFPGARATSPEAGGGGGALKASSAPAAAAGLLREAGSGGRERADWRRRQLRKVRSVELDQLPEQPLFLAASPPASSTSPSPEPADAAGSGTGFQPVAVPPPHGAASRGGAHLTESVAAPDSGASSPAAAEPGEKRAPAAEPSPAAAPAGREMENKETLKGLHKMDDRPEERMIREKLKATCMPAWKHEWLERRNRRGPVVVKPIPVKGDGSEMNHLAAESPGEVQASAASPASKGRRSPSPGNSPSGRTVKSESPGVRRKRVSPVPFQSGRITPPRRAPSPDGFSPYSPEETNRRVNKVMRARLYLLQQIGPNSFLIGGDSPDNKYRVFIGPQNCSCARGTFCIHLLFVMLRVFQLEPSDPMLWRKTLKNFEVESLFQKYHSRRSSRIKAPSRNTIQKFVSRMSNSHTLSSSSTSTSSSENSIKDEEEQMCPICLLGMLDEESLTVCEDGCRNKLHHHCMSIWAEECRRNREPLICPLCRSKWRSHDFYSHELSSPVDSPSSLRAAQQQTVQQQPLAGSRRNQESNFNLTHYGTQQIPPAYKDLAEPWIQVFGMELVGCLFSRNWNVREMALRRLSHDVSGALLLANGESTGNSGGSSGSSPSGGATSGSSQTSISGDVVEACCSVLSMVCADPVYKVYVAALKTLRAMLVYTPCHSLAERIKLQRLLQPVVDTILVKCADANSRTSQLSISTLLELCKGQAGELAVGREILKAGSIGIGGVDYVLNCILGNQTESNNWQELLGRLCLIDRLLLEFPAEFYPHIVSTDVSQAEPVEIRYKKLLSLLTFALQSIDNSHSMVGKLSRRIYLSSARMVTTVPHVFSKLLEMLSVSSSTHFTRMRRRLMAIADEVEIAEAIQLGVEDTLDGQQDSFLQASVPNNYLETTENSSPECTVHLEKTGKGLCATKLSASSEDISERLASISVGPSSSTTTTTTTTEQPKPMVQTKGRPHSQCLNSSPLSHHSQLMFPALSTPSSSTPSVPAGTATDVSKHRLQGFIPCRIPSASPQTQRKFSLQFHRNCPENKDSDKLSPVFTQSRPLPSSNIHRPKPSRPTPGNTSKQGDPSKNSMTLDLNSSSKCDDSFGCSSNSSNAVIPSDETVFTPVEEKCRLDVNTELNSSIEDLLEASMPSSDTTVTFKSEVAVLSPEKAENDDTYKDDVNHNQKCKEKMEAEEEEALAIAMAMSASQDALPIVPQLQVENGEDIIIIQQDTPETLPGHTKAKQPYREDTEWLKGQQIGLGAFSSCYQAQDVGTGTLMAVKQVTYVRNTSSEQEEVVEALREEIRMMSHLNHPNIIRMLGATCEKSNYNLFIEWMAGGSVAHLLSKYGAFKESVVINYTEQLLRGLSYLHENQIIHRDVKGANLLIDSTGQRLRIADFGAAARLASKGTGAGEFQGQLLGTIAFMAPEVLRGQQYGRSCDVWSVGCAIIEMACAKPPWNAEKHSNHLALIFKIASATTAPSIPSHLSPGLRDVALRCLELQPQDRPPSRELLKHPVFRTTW
Serine/threonine-protein kinase pim-1, sequence (P11309 whole entry): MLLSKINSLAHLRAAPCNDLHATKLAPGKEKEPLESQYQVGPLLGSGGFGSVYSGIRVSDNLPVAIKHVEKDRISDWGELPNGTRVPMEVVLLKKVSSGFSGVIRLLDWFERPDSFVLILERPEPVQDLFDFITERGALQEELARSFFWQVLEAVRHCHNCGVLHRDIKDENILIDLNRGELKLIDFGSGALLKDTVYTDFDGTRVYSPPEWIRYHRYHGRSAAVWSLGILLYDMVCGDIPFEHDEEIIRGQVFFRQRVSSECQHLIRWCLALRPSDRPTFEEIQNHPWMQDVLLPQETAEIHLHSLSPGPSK
S-adenosylmethionine synthase isoform type-2, sequence (P31153 whole entry, canonical isoform): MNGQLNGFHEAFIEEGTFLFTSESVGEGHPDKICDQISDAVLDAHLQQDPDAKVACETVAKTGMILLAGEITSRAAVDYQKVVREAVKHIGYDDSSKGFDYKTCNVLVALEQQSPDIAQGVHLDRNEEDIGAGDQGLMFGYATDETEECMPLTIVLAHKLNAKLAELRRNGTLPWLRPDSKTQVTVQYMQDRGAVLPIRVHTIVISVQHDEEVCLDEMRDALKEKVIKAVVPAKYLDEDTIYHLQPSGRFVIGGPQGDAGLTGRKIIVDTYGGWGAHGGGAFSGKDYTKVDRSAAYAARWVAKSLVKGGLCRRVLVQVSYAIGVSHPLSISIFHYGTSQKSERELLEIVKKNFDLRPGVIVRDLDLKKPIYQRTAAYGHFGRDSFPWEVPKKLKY

SMILES | Kd [1] | Kd [2] | Kd [3] | Kd [4] | Kd [5] | Kd [6] | Kd [7] | Kd [8] | Kd [9] | Kd [10] | Kd [11] | Kd [12] | Kd [13]
COc1cc(Nc2ncc3c(n2)-c2ccc(Cl)cc2C(c2c(F)cccc2OC)=NC3)ccc1C(=O)O [ALISERTIB] | > 30 µM (inactive) | > 30 µM (inactive) | > 30 µM (inactive) | > 30 µM (inactive) | > 30 µM (inactive) | > 30 µM (inactive) | > 30 µM (inactive) | > 30 µM (inactive) | > 30 µM (inactive) | – | – | – | –
Cc1nc(NC(=O)N2CCC[C@H]2C(N)=O)sc1-c1ccnc(C(C)(C)C(F)(F)F)c1 [ALPELISIB] | – | > 30 µM (inactive) | > 30 µM (inactive) | > 30 µM (inactive) | > 30 µM (inactive) | > 30 µM (inactive) | > 30 µM (inactive) | – | > 30 µM (inactive) | > 30 µM (inactive) | > 30 µM (inactive) | > 30 µM (inactive) | > 30 µM (inactive)
Cc1csc(-c2nnc(Nc3ccc(Oc4ncccc4-c4ccnc(N)n4)cc3)c3ccccc23)c1 [AMG-900] | > 30 µM (inactive) | > 30 µM (inactive) | 2.75 µM | > 30 µM (inactive) | > 30 µM (inactive) | > 30 µM (inactive) | > 30 µM (inactive) | > 30 µM (inactive) | – | > 30 µM (inactive) | > 30 µM (inactive) | > 30 µM (inactive) | > 30 µM (inactive)
O=C(Nc1c[nH]nc1-c1nc2cc(CN3CCOCC3)ccc2[nH]1)NC1CC1 [AT-9283] | – | – | > 30 µM (inactive) | – | – | > 30 µM (inactive) | > 30 µM (inactive) | 1.15 µM (active) | > 30 µM (inactive) | > 30 µM (inactive) | 2.45 µM (active) | 0.402 µM (active) | > 30 µM (inactive)
NC(=O)Nc1cc(-c2cccc(F)c2)sc1C(=O)N[C@H]1CCCNC1 [AZD-7762] | > 30 µM (inactive) | 0.181 µM (active) | > 30 µM (inactive) | > 30 µM (inactive) | > 30 µM (inactive) | > 30 µM (inactive) | > 30 µM (inactive) | > 30 µM (inactive) | – | > 30 µM (inactive) | 1.68 µM (active) | 1.09 µM (active) | > 30 µM (inactive)
CC(C)(C)c1nc(-c2cccc(NS(=O)(=O)c3c(F)cccc3F)c2F)c(-c2ccnc(N)n2)s1 [DABRAFENIB] | > 30 µM (inactive) | > 30 µM (inactive) | > 30 µM (inactive) | – | > 30 µM (inactive) | > 30 µM (inactive) | > 30 µM (inactive) | 0.036 µM (active) | > 30 µM (inactive) | – | – | > 30 µM (inactive) | > 30 µM (inactive)
